What all share (assay type): cell-based
One test has as its target T1, human TLR7 (Homo sapiens, UniProt Q9NYK1).
T1 construct: host or cells: HEK-Blue cells
T1 sequence (Q9NYK1 27-1049): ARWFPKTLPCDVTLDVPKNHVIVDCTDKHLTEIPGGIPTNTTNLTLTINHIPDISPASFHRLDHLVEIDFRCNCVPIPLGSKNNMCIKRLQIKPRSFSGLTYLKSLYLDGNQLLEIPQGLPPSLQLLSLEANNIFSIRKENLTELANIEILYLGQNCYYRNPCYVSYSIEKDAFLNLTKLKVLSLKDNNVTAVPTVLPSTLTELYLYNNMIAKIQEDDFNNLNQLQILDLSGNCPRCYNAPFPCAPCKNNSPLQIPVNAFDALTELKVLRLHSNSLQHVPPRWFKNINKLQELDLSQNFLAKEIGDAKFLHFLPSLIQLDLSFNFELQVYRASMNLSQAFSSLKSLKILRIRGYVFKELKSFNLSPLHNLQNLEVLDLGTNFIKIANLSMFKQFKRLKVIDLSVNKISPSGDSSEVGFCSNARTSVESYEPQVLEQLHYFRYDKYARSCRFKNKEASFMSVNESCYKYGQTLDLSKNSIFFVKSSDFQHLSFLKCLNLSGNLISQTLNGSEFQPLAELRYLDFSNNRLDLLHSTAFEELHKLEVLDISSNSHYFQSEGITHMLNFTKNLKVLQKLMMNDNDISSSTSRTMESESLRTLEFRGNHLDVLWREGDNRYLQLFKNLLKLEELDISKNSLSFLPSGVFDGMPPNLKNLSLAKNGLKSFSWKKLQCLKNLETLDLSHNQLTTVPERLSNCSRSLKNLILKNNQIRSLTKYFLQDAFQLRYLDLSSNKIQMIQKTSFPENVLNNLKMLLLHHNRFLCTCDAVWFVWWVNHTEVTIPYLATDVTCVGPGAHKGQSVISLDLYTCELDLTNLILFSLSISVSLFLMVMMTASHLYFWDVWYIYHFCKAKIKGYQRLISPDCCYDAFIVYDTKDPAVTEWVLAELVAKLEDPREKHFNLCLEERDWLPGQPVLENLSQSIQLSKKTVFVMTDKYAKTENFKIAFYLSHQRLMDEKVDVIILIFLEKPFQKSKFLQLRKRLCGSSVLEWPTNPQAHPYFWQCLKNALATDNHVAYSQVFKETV
Description: TLR7 inhibition reporter assay (HEK-Blue SEAP reporter, gardiquimod stimulation). The note with it: HEK-Blue cells overexpressing human TLR7, SEAP reporter, gardiquimod 7.5 μM, 22 hour incubation. The essentials: (§1)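 Screening used HEK-Blue cells overexpressing one human TLR (7, 8 or 9) and an IFN-β minimal promoter–NF-κB/AP-1 SEAP construct. Stimulation lasted 22 h at 37 °C with receptor-specific agonist: gardiquimod, R848 or ODN2006 at 7.5 μM, 15.9 μM and 5 nM.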
For orientation: In a reporter assay the amount or activity of a reporter protein is the signal.

A further test concerns the target T2, human TLR8 (Homo sapiens, UniProt Q9NR97).
T2 construct: host or cells: HEK-Blue cells
T2 sequence (Q9NR97 27-1041): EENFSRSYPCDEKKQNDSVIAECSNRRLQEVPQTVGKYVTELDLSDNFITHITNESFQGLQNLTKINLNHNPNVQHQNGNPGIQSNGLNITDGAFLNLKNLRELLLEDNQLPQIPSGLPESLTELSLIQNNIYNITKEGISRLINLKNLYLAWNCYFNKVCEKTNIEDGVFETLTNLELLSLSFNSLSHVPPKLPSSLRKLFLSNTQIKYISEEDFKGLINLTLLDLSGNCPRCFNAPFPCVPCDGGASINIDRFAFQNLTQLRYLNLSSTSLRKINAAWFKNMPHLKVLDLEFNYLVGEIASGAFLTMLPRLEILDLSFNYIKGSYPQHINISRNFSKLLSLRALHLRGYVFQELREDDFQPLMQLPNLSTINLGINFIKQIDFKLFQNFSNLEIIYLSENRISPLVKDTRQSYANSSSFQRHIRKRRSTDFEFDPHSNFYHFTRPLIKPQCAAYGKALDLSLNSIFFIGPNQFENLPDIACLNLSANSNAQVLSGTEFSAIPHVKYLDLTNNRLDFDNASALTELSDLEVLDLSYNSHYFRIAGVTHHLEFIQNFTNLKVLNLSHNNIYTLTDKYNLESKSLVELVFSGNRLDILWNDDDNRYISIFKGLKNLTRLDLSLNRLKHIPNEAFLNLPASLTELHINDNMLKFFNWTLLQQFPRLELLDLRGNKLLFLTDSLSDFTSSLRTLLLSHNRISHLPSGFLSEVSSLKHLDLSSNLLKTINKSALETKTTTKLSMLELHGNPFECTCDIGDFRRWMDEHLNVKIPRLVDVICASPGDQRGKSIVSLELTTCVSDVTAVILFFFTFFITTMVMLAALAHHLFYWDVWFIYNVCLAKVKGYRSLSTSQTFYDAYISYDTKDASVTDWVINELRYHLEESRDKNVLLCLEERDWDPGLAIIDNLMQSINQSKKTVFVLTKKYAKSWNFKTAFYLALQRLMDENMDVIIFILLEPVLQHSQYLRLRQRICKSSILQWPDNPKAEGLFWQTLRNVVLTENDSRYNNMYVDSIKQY
Description: TLR8 inhibition reporter assay (HEK-Blue SEAP reporter, R848 stimulation). The note with it: HEK-Blue cells overexpressing human TLR8, SEAP reporter, R848 15.9 μM, 22 hour incubation. The essentials: as §1

Another test addresses T3, human TLR9 (Homo sapiens, UniProt Q9NR96).
T3 construct: host or cells: HEK-Blue cells
T3 sequence (Q9NR96 26-1032): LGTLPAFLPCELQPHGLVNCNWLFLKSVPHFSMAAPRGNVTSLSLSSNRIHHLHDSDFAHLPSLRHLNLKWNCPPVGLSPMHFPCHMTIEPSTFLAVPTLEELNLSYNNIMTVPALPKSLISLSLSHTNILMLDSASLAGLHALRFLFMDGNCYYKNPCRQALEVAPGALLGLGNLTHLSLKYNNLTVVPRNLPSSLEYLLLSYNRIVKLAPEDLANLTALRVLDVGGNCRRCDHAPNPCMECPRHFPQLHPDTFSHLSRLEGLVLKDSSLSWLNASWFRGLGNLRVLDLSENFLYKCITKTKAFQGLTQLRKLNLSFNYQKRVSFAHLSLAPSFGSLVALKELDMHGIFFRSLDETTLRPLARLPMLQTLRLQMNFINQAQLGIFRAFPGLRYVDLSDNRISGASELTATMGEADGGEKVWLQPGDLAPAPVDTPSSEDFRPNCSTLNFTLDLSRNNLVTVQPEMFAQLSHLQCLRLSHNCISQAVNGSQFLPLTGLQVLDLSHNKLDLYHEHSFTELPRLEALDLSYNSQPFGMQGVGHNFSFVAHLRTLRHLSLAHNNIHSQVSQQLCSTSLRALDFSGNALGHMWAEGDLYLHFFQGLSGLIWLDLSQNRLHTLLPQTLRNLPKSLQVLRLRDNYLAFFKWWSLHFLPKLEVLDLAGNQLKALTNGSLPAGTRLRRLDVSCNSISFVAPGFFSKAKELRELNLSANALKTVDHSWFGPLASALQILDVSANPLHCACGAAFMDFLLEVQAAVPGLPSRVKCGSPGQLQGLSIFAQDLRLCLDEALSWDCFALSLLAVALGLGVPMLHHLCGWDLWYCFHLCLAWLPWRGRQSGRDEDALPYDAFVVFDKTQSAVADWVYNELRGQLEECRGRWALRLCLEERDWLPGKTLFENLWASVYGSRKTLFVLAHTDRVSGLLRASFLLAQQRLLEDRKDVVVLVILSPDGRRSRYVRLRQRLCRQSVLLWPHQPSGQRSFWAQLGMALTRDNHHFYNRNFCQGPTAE
Nature of the test: TLR9 inhibition reporter assay (HEK-Blue SEAP reporter, ODN2006 stimulation). The note with it: HEK-Blue cells overexpressing human TLR9, SEAP reporter, ODN2006 5 nM, 22 hour incubation. Summed up:
as §1

For orientation: IC50 means the midpoint of a concentration-inhibition curve. Lower therefore signals greater potency. Regarding `Cc1c(-c2[nH]c3ccc(C4CCN(CC#N)CC4)cc3c2C(C)C)cn(C)c(=O)c1Cl` [Example 96, 2-(4-(2-(5-chloro-1,4-dimethyl-6-oxo-1,6-dihydropyridin-3-yl)-3-isopropyl-1H-indol-5-yl)piperidin-1-yl)acetonitrile], the IC50 on human TLR7 amounted to 2 nM; on human TLR8, 14.3 nM; on human TLR9, 2860 nM.

Turning to `Cc1cc(-c2[nH]c3ccc(C4CCNCC4)cc3c2C(C)C)cn(CCO)c1=O` [Example 30, 1-(2-hydroxyethyl)-5-(3-isopropyl-5-(piperidin-4-yl)-1H-indol-2-yl)-3-methylpyridin-2(1H)-one], the 50% inhibitory concentration (IC50) on human TLR7 stood at 8.4 nM; against human TLR8 it was 10.1 nM; on human TLR9 it was 2390 nM.

As to `Cc1c(-c2[nH]c3ccc(C4CCNCC4)cc3c2C(C)C)nn(C)c(=O)c1C` [Example 17, 6-(3-isopropyl-5-(piperidin-4-yl)-1H-indol-2-yl)-2,4,5-trimethylpyridazin-3(2H)-one], the IC50 was 21.1 nM on human TLR7, 12.2 nM against human TLR8 and 597 nM on human TLR9.

Take `Cc1c(-c2[nH]c3ccc(C4CCN(CCCC(F)(F)F)CC4)cc3c2C(C)C)cn(C)c(=O)c1Cl` [Example 105, 3-chloro-5-(3-isopropyl-5-(1-(4,4,4-trifluorobutyl)piperidin-4-yl)-1H-indol-2-yl)-1,4-dimethylpyridin-2(1H)-one]: the results for the IC50 against human TLR7, at human TLR8 and on human TLR9 were 5.1 nM, 10.7 nM and 5520 nM, respectively.

For the compound `Cc1cc(-c2[nH]c3ccc(C4CCN(Cc5ccnn5C)CC4)cc3c2C(C)C)cn(C)c1=O` [Example 197, 5-(3-isopropyl-5-(1-((1-methyl-1H-pyrazol-5-yl)methyl)piperidin-4-yl)-1H-indol-2-yl)-1,3-dimethylpyridin-2(1H)-one], the IC50 at human TLR7 was 4.6 nM; on human TLR8, 2.4 nM; against human TLR9, 8340 nM.

As to `Cc1c(-c2[nH]c3ccc(C4CCN(C(C)C)CC4)cc3c2C(C)C)cn(C)c(=O)c1Cl` [Example 238, 3-chloro-5-(3-isopropyl-5-(1-isopropylpiperidin-4-yl)-1H-indol-2-yl)-1,4-dimethylpyridin-2(1H)-one], the IC50 against human TLR7 is 7.2 nM; at human TLR8 it was 11.8 nM; against human TLR9 it was 8330 nM.

On to `Cc1cc(-c2[nH]c3ccc(C4CCN(CC5CCOC5)CC4)cc3c2C(C)C)cn(C)c1=O` (stereo not drawn) [Example 225, 5-(3-isopropyl-5-(1-((tetrahydrofuran-3-yl)methyl)piperidin-4-yl)-1H-indol-2-yl)-1,3-dimethylpyridin-2(1H)-one], for which the IC50 on human TLR7 came out at 4.6 nM; against human TLR8 it was 3.6 nM; on human TLR9, 6990 nM.

Consider `CC(C)c1c(-c2cc(-c3cccnc3)c(=O)n(C)c2)[nH]c2ccc(C3CCN(CCO)CC3)cc12` [Example 236, 5-(5-(1-(2-hydroxyethyl)piperidin-4-yl)-3-isopropyl-1H-indol-2-yl)-1-methyl-[3,3′-bipyridin]-2(1H)-one], for which the half-inhibitory concentration (IC50) at human TLR7 stood at 4.6 nM; against human TLR8 it was 9.8 nM; against human TLR9 it was 980 nM.

On to `Cc1cc(-c2[nH]c3ccc(C4CCN(CC(=O)N(C)C)CC4)cc3c2C(C)C)nn(C)c1=O` [Example 116, 2-(4-(2-(1,5-dimethyl-6-oxo-1,6-dihydropyridazin-3-yl)-3-isopropyl-1H-indol-5-yl)piperidin-1-yl)-N,N-dimethylacetamide], for which the IC50 at human TLR7 worked out at 29.6 nM; against human TLR8 it was 23.8 nM; against human TLR9, 6100 nM.

Consider `COc1c(C)c(-c2[nH]c3ccc(C4CCN(C(=O)CN(C)C)CC4)cc3c2C(C)C)cn(C)c1=O` [Example 276, 5-(5-(1-(dimethylglycyl)piperidin-4-yl)-3-isopropyl-1H-indol-2-yl)-3-methoxy-1,4-dimethylpyridin-2(1H)-one], for which the IC50 amounted to 52.2 nM against human TLR7, 80.2 nM at human TLR8 and 4760 nM against human TLR9.

`Cc1cc(-c2[nH]c3ccc(C4CCN(CC(C)C)CC4)cc3c2C(C)C)cn(CC(C)C)c1=O` [Example 112, 1-isobutyl-5-(5-(1-isobutylpiperidin-4-yl)-3-isopropyl-1H-indol-2-yl)-3-methylpyridin-2(1H)-one]: the results for the IC50 against human TLR7, against human TLR8 and on human TLR9 were 38.9 nM, 70.5 nM and 2360 nM, respectively.

For the compound `CC(C)c1c(-c2cc(-c3cccnc3)c(=O)n(C)c2)[nH]c2ccc(C3CCN(C)CC3)cc12` [Example 247, 5-(3-isopropyl-5-(1-methylpiperidin-4-yl)-1H-indol-2-yl)-1-methyl-[3,3′-bipyridin]-2(1H)-one], the figures for the IC50 against human TLR7, on human TLR8 and against human TLR9 were 3 nM, 4.1 nM and 864 nM, respectively.

On to `CCCN1CCC(c2ccc3[nH]c(-c4cc(-c5cccnc5)c(=O)n(C)c4)c(C(C)C)c3c2)CC1` [Example 245, 5-(3-isopropyl-5-(1-propylpiperidin-4-yl)-1H-indol-2-yl)-1-methyl-[3,3′-bipyridin]-2(1H)-one], for which the concentration for half-maximal inhibition (IC50) against human TLR7 was determined as 7.3 nM; at human TLR8, 2 nM; on human TLR9 it was 851 nM.

(Values after patent US11447466B2, “Substituted indole compounds useful as inhibitors of TLR7/8/9” (BRISTOL-MYERS SQUIBB COMPANY, priority 2017, dated 2022).)
